What was measured:
BRD4-BD2 = target: T1, BRD4-BD2 (Homo sapiens, UniProt O60885); experiment: Binding affinity to BRD4-BD2 (bromoKdELECT assay); conditions: 11-point 3-fold dilution series
T1 construct: made in house; host or cells: T7 phage grown in an E. coli host derived from the BL21 strain
Protocol: Compounds were tested using a bromoKdELECT assay. T7 phage strains displaying bromodomains were grown in parallel in 24-well blocks in an E. coli host derived from the BL21 strain. E. coli were grown to log-phase and infected with T7 phage from a frozen stock (multiplicity of infection=0.4) and incubated with shaking at 32° C. until lysis (90-150 minutes). The lysates were centrifuged (5,000×g) and filtered ([…]) to remove cell debris. Streptavidin-coated magnetic beads were treated with biotinylated small molecule or acetylated peptide ligands for 30 minutes at room temperature to generate affinity resins for bromodomain assays. The liganded beads were blocked with excess biotin and washed with blocking buffer (SeaBlock (Pierce), 1% BSA, 0.05% Tween 20, 1 mM DTT) to remove unbound ligand and to reduce nonspecific phage binding. Binding reactions were assembled by combining bromodomains, liganded affinity beads, and test compounds in 1× binding buffer (17% SeaBlock, 0.33×PBS, 0.04% Tween 20, 0.02% BSA, 0.004% Sodium azide, 7.4 mM DTT). Test compounds were prepared as 1000× stocks in 100% DMSO. Kds were determined using an 11-point 3-fold compound dilution series with one DMSO control point. All compounds for Kd measurements are distributed by acoustic transfer (non-contact dispensing) in 100% DMSO. The compounds were then diluted directly into the assays such that the final concentration of DMSO was 0.09%. All reactions performed in polypropylene 384-well plates. Each was a final volume of 0.02 ml. The assay plates were incubated at room temperature with shaking for 1 hour and the affinity beads were washed with wash buffer (1×PBS, 0.05% Tween 20). The beads were then resuspended in elution buffer (1×PBS, 0.05% Tween 20, 2 μM non-biotinylated affinity ligand) and incubated at room temperature with shaking for 30 minutes. The bromodomain concentration in the eluates was measured by qPCR.

[1] = test system: T-Rex 293 cell line SC3 cells lacking increased expression of androgen receptor protein; experiment: Cellular growth inhibition, T-Rex 293 SC3 cells without doxycycline (no increased androgen receptor expression), CellTiter-Glo; assay type: cell-based; conditions: T-Rex 293 SC3 cells not exposed to doxycycline (no increased androgen receptor expression), 72 hours
In short: (§1)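 Doxycycline (10 ng/mL) was either included or omitted to toggle wild-type androgen receptor expression in SC3 cells, a T-Rex 293 clone, grown in stripped-serum, phenol red-free medium. After 72 hours with compound, viable cells were quantified by CellTiter-Glo 2.0.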

VCaP cells = experiment: Cellular growth inhibition assay for VCaP cells, CellTiter-Glo; assay type: cell-based, human; conditions: Homo sapiens, 72 hours
In short: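 GI50 values come from four-parameter curve fits of luminescence data normalized to a zero baseline. Compound, in medium with 0.5% DMSO, was added one day after plating and left for 72 h before CellTiter-Glo 2.0 addition.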

[2] = test system: T-Rex 293 cell line SC3 cells having increased expression of androgen receptor protein due to exposure to doxycycline; experiment: Cellular growth inhibition, T-Rex 293 SC3 cells with doxycycline (increased androgen receptor expression), CellTiter-Glo; assay type: cell-based; conditions: T-Rex 293 SC3 cells with 10 ng/mL doxycycline (increased androgen receptor expression), 72 hours, CellTiter-Glo 2.0
In short: as §1

| Kd (BRD4-BD2) [nM] | GI50 (VCaP cells) [nM] | Compound | GI50 [1] [nM] | GI50 [2] [nM] |
| --- | --- | --- | --- | --- |
| < 50 | < 500 | CCS(=O)(=O)Nc1ccc(Oc2cccc(OCCN(C)c3ncc(C(=O)N[C@H]4C(C)(C)[C@H](Oc5ccc(C#N)c(Cl)c5)C4(C)C)cn3)c2)c(-c2cn(C)c(=O)c3[nH]ccc23)c1 [Compound I-1, N-((1r, 3r)-3-(3-chloro-4-cyanophenoxy)-2,2,4,4-tetramethylcyclobutyl)-2-((2-(3-(4-(ethylsulfonamido)-2-(6-methyl-7-oxo-6,7-dihydro-1H-pyrrolo[2,3-c]pyridin-4-yl)phenoxy)phenoxy)ethyl)(methyl)amino)pyrimidine-5-carboxamide] | 500 to 1500 | < 500 |
| < 50 | < 500 | CCS(=O)(=O)Nc1ccc(Oc2cccc(OCCOCCOCCOCCOCCN(C)c3ncc(C(=O)N[C@H]4C(C)(C)[C@H](Oc5ccc(C#N)c(Cl)c5)C4(C)C)cn3)c2)c(-c2cn(C)c(=O)c3[nH]ccc23)c1 [Compound I-3] | > 3000 | < 500 |
| 50 to 500 | < 500 | CCS(=O)(=O)Nc1ccc(Oc2cccc(OCCOC3CCN(c4ncc(C(=O)N[C@H]5C(C)(C)[C@H](Oc6ccc(C#N)c(Cl)c6)C5(C)C)cn4)CC3)c2)c(-c2cn(C)c(=O)c3[nH]ccc23)c1 [Compound I-6] | < 500 | < 500 |
| < 50 | < 500 | CCS(=O)(=O)Nc1ccc(Oc2cccc(OCCOCCOCCOC3CCN(c4ncc(C(=O)N[C@H]5C(C)(C)[C@H](Oc6ccc(C#N)c(Cl)c6)C5(C)C)cn4)CC3)c2)c(-c2cn(C)c(=O)c3[nH]ccc23)c1 [Compound I-7] | < 500 | < 500 |
| < 50 | < 500 | CCS(=O)(=O)Nc1ccc(Oc2cccc(OCCOCCOCCOCCOCCOC3CCN(c4ncc(C(=O)N[C@H]5C(C)(C)[C@H](Oc6ccc(C#N)c(Cl)c6)C5(C)C)cn4)CC3)c2)c(-c2cn(C)c(=O)c3[nH]ccc23)c1 [Compound I-8] | < 500 | < 500 |
| < 50 | < 500 | CCS(=O)(=O)Nc1ccc(Oc2cccc(OCCOC3CCN(c4ccc(C(=O)N[C@H]5C(C)(C)[C@H](Oc6ccc(C#N)c(Cl)c6)C5(C)C)nn4)CC3)c2)c(-c2cn(C)c(=O)c3[nH]ccc23)c1 [Compound I-11] | < 500 | < 500 |
| < 50 | < 500 | CCS(=O)(=O)Nc1ccc(Oc2cccc(OCCOCCOC3CCN(c4ncc(C(=O)N[C@H]5C(C)(C)[C@H](Oc6ccc(C#N)c(Cl)c6)C5(C)C)cn4)CC3)c2)c(-c2cn(C)c(=O)c3[nH]ccc23)c1 [Compound I-13] | < 500 | < 500 |
| < 50 | < 500 | CCS(=O)(=O)Nc1ccc(Oc2cccc(COC3CCN(c4ncc(C(=O)N[C@H]5C(C)(C)[C@H](Oc6ccc(C#N)c(Cl)c6)C5(C)C)cn4)CC3)c2)c(-c2cn(C)c(=O)c3[nH]ccc23)c1 [Compound I-18, N-((1r, 3r)-3-(3-chloro-4-cyanophenoxy)-2,2,4,4-tetramethylcyclobutyl)-2-(4-((3-(4-(ethylsulfonamido)-2-(6-methyl-7-oxo-6,7-dihydro-1H-pyrrolo[2,3-c]pyridin-4-yl)phenoxy)benzyl)oxy)piperidin-1-yl)pyrimidine-5-carboxamide] | < 500 | < 500 |
| < 50 | < 500 | CCS(=O)(=O)Nc1ccc(Oc2cccc(N(C)C3CN(CC4CCN(c5ncc(C(=O)NC6C(C)(C)C(Oc7ccc(C#N)c(Cl)c7)C6(C)C)cn5)CC4)C3)c2)c(-c2cn(C)c(=O)c3[nH]ccc23)c1 (stereo not drawn) [Compound I-39] | < 500 | < 500 |
| < 50 | < 500 | CCS(=O)(=O)Nc1ccc(Oc2cccc(OCCOC3CCN(c4ncc(C(=O)N[C@H]5C(C)(C)[C@H](Oc6ccc(C#N)c(Cl)c6)C5(C)C)cn4)CC3)n2)c(-c2cn(C)c(=O)c3[nH]ccc23)c1 [Compound I-47, N-((1r, 3r)-3-(3-chloro-4-cyanophenoxy)-2,2,4,4-tetra-methylcyclobutyl)-2-(4-(2-((6-(4-(ethylsulfonamido)-2-(6-methyl-7-oxo-6,7-dihydro-1H-pyrrolo[2,3-c]pyridin-4-yl)phenoxy)pyridin-2-yl)oxy)ethoxy)piperidin-1-yl)pyrimidine-5-carboxamide] | < 500 | < 500 |
| 50 to 500 | < 500 | CCS(=O)(=O)Cc1ccc(Oc2cccc(OCCOC3CCN(c4ncc(C(=O)N[C@H]5C(C)(C)[C@H](Oc6ccc(C#N)c(Cl)c6)C5(C)C)cn4)CC3)c2)c(-c2cn(C)c(=O)c3[nH]ccc23)c1 [Compound I-54, N-((1r, 3r)-3-(3-chloro-4-cyanophenoxy)-2,2,4,4-tetramethylcyclobutyl)-2-(4-(2-(3-(4-((ethylsulfonyl)methyl)-2-(6-methyl-7-oxo-6,7-dihydro-1H-pyrrolo[2,3-c]pyridin-4-yl)phenoxy)phenoxy)ethoxy)piperidin-1-yl)pyrimidine-5-carboxamide] | < 500 | < 500 |
| 50 to 500 | < 500 | Cn1cc(-c2cc(C(C)(C)O)ccc2Oc2cccc(OCCOC3CCN(c4ncc(C(=O)N[C@H]5C(C)(C)[C@H](Oc6ccc(C#N)c(Cl)c6)C5(C)C)cn4)CC3)c2)c2cc[nH]c2c1=O [Compound I-56, N-((1r, 3r)-3-(3-chloro-4-cyanophenoxy)-2,2,4,4-tetramethylcyclobutyl)-2-(4-(2-(3-(4-(2-hydroxypropan-2-yl)-2-(6-methyl-7-oxo-6,7-dihydro-1H-pyrrolo[2,3-c]pyridin-4-yl)phenoxy)phenoxy)ethoxy)piperidin-1-yl)pyrimidine-5-carboxamide] | < 500 | < 500 |
| > 2500 | < 500 | Cn1cc(-c2ccccc2Oc2cccc(OCCOC3CCN(c4ncc(C(=O)N[C@H]5C(C)(C)[C@H](Oc6ccc(C#N)c(Cl)c6)C5(C)C)cn4)CC3)c2)c2cc[nH]c2c1=O [Compound I-61, N-((1r, 3r)-3-(3-chloro-4-cyanophenoxy)-2,2,4,4-tetramethylcyclobutyl)-2-(4-(2-(3-(2-(6-methyl-7-oxo-6,7-dihydro-1H-pyrrolo[2,3-c]pyridin-4-yl)phenoxy)phenoxy)ethoxy)piperidin-1-yl)pyrimidine-5-carboxamide] | 1500 to 3000 | < 500 |
| > 2500 | < 500 | Cn1cc(-c2cc(N)ccc2Oc2cccc(OCCOC3CCN(c4ncc(C(=O)N[C@H]5C(C)(C)[C@H](Oc6ccc(C#N)c(Cl)c6)C5(C)C)cn4)CC3)c2)c2cc[nH]c2c1=O [Compound I-62, 2-(4-(2-(3-(4-amino-2-(6-methyl-7-oxo-6,7-dihydro-1H-pyrrolo[2,3-c]pyridin-4-yl)phenoxy)phenoxy)ethoxy)piperidin-1-yl)-N-((1r, 3r)-3-(3-chloro-4-cyanophenoxy)-2,2,4,4-tetramethylcyclobutyl)pyrimidine-5-carboxamide] | > 3000 | < 500 |
| < 50 | < 500 | CCS(=O)(=O)Nc1ccc(Oc2ccc(F)c(OCCOC3CCN(c4ncc(C(=O)N[C@H]5C(C)(C)[C@H](Oc6ccc(C#N)c(Cl)c6)C5(C)C)cn4)CC3)c2F)c(-c2cn(C)c(=O)c3[nH]ccc23)c1 [Compound I-65] | < 500 | < 500 |
| 50 to 500 | < 500 | CCS(=O)(=O)Nc1ccc(Oc2cccc(N3CC(N4CCN(c5ncc(C(=O)N[C@H]6C(C)(C)[C@H](Oc7ccc(C#N)c(Cl)c7)C6(C)C)cn5)CC4)C3)c2)c(-c2cn(C)c(=O)c3[nH]ccc23)c1 [Compound I-75] | < 500 | < 500 |
| 50 to 500 | < 500 | CCS(=O)(=O)Nc1ccc(Oc2cccc(N3CC(OC4CCN(c5ncc(C(=O)N[C@H]6C(C)(C)[C@H](Oc7ccc(C#N)c(Cl)c7)C6(C)C)cn5)CC4)C3)c2)c(-c2cn(C)c(=O)c3[nH]ccc23)c1 [Compound I-80] | < 500 | < 500 |
| < 50 | < 500 | CCS(=O)(=O)Nc1ccc(Oc2cccc(NCCOC3CCN(c4ncc(C(=O)N[C@H]5C(C)(C)[C@H](Oc6ccc(C#N)c(Cl)c6)C5(C)C)cn4)CC3)c2)c(-c2cn(C)c(=O)c3[nH]ccc23)c1 [Compound I-84] | < 500 | < 500 |
